Assay results: patent US12590099B2, “Inhibitors of histone deacetylase useful for the treatment or prevention of HIV infection” (Merck Sharp & Dohme LLC, priority 2018, dated 2026)

Key:
Type in all cases: biochemical
Recombinant human HDAC2 = target: T1, Recombinant human HDAC2 (Homo sapiens, UniProt Q92769); test: Human HDAC enzyme inhibitor Fluor-de-Lys assay, HDAC2; conditions: recombinant human HDAC2, Fluor-de-Lys assay
T1 construct: Full length human HDAC2-FLAG was expressed in baculovirus infected Sf9 cells; FLAG (C); made in house; host or cells: Sf9 (baculovirus)
T1 sequence (Q92769 whole entry): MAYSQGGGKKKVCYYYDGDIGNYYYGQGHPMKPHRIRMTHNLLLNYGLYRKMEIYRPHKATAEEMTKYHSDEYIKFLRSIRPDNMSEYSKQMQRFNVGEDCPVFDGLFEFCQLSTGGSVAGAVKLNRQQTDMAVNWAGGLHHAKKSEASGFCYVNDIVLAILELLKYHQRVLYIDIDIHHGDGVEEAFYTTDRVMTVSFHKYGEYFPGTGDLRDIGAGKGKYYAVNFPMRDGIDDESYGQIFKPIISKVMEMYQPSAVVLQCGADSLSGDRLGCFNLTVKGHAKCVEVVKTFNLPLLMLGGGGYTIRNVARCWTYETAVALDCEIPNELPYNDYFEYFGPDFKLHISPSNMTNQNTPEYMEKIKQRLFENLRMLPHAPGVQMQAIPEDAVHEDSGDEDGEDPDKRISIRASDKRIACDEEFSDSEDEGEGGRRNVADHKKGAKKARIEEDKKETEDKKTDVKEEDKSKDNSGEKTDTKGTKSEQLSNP
Method in brief: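 Fluor-de-Lys format at room temperature (23° C.): compounds titrated 10-point, 1:3, preincubated with HDAC before substrate addition. Developer with excess HDAC inhibitor ends the reaction, and trypsin-liberated AMC fluorescence is the read-out.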

Recombinant human HDAC8 = target: T2, Recombinant human HDAC8 (Homo sapiens, UniProt Q9BY41); test: Human HDAC enzyme inhibitor Fluor-de-Lys assay, HDAC8; conditions: recombinant human HDAC8, Fluor-de-Lys assay
T2 construct: purchased Enzo Life Sciences BML-SE145-0100
T2 sequence (Q9BY41 1-377): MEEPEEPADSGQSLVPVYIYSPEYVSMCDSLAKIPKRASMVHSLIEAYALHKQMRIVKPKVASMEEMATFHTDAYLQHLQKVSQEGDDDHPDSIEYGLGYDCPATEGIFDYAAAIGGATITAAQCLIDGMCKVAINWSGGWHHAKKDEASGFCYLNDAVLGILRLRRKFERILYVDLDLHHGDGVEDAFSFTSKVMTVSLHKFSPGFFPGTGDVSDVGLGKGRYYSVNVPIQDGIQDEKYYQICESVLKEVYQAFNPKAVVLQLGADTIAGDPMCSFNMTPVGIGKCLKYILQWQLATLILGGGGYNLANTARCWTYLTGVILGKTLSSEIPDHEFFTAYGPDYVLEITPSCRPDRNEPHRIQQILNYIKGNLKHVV

HDAC6 = target: T3, HDAC6 (Homo sapiens, UniProt Q9UBN7); test: Human HDAC enzyme inhibitor Fluor-de-Lys assay, HDAC6; conditions: HDAC6, Fluor-de-Lys assay
T3 sequence (Q9UBN7 1-1215): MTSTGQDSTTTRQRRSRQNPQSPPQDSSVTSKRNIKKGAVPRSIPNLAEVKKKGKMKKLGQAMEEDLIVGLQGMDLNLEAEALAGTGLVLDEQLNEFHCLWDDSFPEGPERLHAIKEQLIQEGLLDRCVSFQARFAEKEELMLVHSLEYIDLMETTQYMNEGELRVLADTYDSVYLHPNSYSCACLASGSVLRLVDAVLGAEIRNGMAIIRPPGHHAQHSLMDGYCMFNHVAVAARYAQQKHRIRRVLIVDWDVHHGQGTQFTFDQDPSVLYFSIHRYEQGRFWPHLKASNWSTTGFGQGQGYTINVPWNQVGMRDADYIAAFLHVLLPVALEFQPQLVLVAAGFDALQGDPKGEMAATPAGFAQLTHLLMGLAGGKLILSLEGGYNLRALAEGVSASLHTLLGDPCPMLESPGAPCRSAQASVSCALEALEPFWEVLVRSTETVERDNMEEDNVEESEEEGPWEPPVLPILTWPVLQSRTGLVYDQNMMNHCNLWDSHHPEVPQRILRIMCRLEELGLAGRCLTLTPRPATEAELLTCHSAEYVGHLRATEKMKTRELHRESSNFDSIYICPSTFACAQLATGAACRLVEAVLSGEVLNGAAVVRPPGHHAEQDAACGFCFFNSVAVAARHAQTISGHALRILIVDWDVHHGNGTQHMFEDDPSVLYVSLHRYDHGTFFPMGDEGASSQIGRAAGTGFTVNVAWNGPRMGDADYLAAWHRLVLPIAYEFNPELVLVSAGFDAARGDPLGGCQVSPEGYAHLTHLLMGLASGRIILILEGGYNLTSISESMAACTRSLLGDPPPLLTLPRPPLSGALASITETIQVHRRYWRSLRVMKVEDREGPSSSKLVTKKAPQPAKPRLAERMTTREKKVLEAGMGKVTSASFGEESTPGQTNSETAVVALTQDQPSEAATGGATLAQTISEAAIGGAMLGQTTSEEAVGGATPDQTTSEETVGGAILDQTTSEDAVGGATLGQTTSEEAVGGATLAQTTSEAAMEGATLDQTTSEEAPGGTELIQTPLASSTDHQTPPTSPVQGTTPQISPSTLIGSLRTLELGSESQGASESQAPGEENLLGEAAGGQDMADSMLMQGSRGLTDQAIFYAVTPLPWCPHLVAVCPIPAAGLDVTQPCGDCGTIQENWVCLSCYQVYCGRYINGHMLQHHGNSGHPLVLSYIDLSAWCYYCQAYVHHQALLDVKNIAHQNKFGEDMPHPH

Compound | IC50 (Recombinant human HDAC2) [nM] | IC50 (Recombinant human HDAC8) [nM] | IC50 (HDAC6) [nM]
CCC(=O)CCCCC[C@H](NC(=O)[C@H]1CC12CCN(CC1CC1)CC2)c1ncc(-c2cc3ccc(=O)n(C)c3cc2F)o1 [Compound 400] | 39.7 | > 900 | > 900
CCC(=O)CCCCC[C@H](NC(=O)C1=NOC2(CCN(C(C)C)CC2)C1)c1ncc(-c2ccccc2)[nH]1 [Compound 379] | 100 | 3290 | 8590
CCC(=O)CCCCC[C@H](NC(=O)[C@H]1CC[C@]2(CC1)OC(=O)c1cccnc12)c1ncc(-c2ccccc2)[nH]1 [Compound 378] | 220 | 2960 | 10800
CCC(=O)CCCCCC(N)(COC)c1ncc(-c2cc3ccc(C)nc3cc2OC)[nH]1 (stereo not drawn) [Compound 414, 9-amino-10-methoxy-9-[5-(7-methoxy-2-methylquinolin-6-yl)-1H-imidazol-2-yl]decan-3-one] | > 900 | > 900 | > 900
CCC(=O)CCCCC[C@H](NC(=O)C1=NOC2(CCN(C(=O)OC)CC2)C1)c1ncc(-c2ccccc2)[nH]1 [Compound 381] | 637 | 7470 | 32300
CCC(=O)CCCCC[C@H](NC(=O)C1=NOC2(CCN(C)CC2)C1)c1ncc(-c2ccc(-c3ccccn3)cc2OC)o1 [Compound 391] | 74.5 | > 900 | > 900
CCC(=O)CCCCC[C@H](NC(=O)[C@H]1CC[C@@]2(CC1)OC(=O)c1cccnc12)c1ncc(-c2ccccc2)[nH]1 [Compound 375] | 479 | 8880 | 10200
CCC(=O)CCCCC[C@H](NC(=O)C1CC12CCOCC2)c1ncc(-c2cc3ccc(C)nc3cc2OC)[nH]1 (single isomer, unassigned) [Compound 413] | 155 | > 900 | > 900
CCC(=O)CCCCC[C@H](NC(=O)[C@H]1CC12CCN(C)CC2)c1ncc(-c2cc3ocnc3cc2F)o1 [Compound 389] | 98.3 | > 900 | > 900
CCN[C@@H](CCCCCC(=O)CC)c1ncc(-c2cc3ccc(C)nc3cc2OC)[nH]1 [Compound 403] | > 900 | > 900 | > 900
CCC(=O)CCCCC[C@H](NC(=O)C1=NOC2(CCN(C(C)C)CC2)C1)c1nnc(-c2cc3ccccc3nc2OC)o1 [Compound 369] | 68.2 | 19900 | 2500
CCC(=O)CCCCC[C@H](NC(=O)[C@H]1CC12CCN(C)CC2)c1ncc(-c2cc3ccncc3cc2OC)o1 [Compound 405] | 2 | > 900 | 163
CCC(=O)CCCCC[C@H](NC(=O)[C@H]1CC12CCN(CC1CC1)CC2)c1ncc(-c2cc3ccc(C)nc3cc2OC)o1 [Compound 422] | 0.7 | > 900 | 113
